# Like-named read-outs stand apart in the source and are kept apart here.
# Columns and labels:
# Huh-7 cells [1] = test: Real-time RT-PCR of key gene expression; format: cell-based, human; conditions: 6.25-50 μM, 1-8 hours
# Procedure: FIGS. 3A-3D. Expression of key genes related to signaling pathways. […] Key Genes and their targeting genes expression were determined by RT-PCR analysis. […] Each sample, 2 was sent to […], Inc. (Hopkinton, MA) for analysis of global methylation bisulfite sequencing. The same samples, 6 μg, were sent to Novogene Co., Ltd (Tianjin, China) for analysis of whole genome bisulfite sequencing (WGBS). Total RNA was isolated using the Promega SV total RNA isolation system (Madison, WI) with DNase treatment. […] Real-time RT-PCR was performed using SYBR Green as the indicator on ABI 7500 Fast Real-Time PCR System (Applied Biosystems, Foster City, CA). Amplifications of β-actin or GAPDH were used as internal controls. Relative messenger RNA (mRNA) expression was quantified with the comparative cycle threshold (Ct) method using the primer set shown in Table 1.1 and was expressed as 2^-ΔΔct.
# [2] = Tissue distribution by quantitative whole body autoradiography, intravenous; format: in vivo, male Sprague Dawley rats; conditions: iv 10 mg/kg
# Procedure: (§1) Nine male Sprague Dawley rats (Group 1) were designated for the pharmacokinetic phase, 3 male Sprague Dawley rats (Group 2) for the excretion mass balance phase, and 7 male Sprague Dawley rats (Group 3) and 9 male Long Evans rats (Group 4) for the tissue distribution phase. All animals received a single intravenous dose of [^14C]-25HC3S at 10 mg/kg and a target radioactivity of 225 μCi/kg. Blood samples were collected from all Group 1 animals at approximately 0.083, 0.25, 0.5, 1, 2, 4, 8, 12, 24, 48, and 72 hours post-dose. Urine and feces were collected from all Group 2 animals periodically through 168 hours post-dose. […] Following blood collection, animals were euthanized by CO2 inhalation and carcasses frozen in a dry ice/hexane bath for processing by quantitative whole body autoradiography. Whole blood, plasma, urine, feces, cage rinse, and cage wash were analyzed for total radioactivity by liquid scintillation counting.
# [3] = set-up: species or system rats; conditions: Sprague Dawley, rat, in vivo, po, 75 mg/kg
# [4] = Plasma pharmacokinetics of radioactivity, single intravenous dose; format: in vivo, male Sprague Dawley rats; conditions: single intravenous (bolus) dose 10 mg/kg; total radioactivity
# Procedure: as §1
# [5] = Tissue distribution by quantitative whole body autoradiography, intravenous, pigmented animals; format: in vivo, male Long Evans rats; conditions: iv 10 mg/kg
# Procedure: as §1
# [6] = set-up: species or system rats; conditions: rat, in vivo, po, 75 mg/kg
# Procedure: The terminal elimination phase T1/2 was 27.3 hours.
# [7] = Metabolite profiling of plasma, urine, feces after intravenous dose (HPLC radiodetection, MS); format: in vivo, rats; conditions: iv 10 mg/kg
# Procedure: Plasma pools were made from Group 1 rats at the 0.083, 0.25, 0.5, and 1-hour collection time points.
# Urine pools were prepared for Group 2 at 0 to 6 and 6 to 12 hours post-dose. […] Four metabolites present at <10% relative observed intensity in at least 1 sample were M7 (<5% relative observed intensity), M16 (<3% relative observed intensity), M19 (<6% relative observed intensity), and M25 (<5% relative observed intensity).
# Feces pools were prepared for Group 2 at 0 to 12, 12 to 24, and 24 to 48 hours post-dose.
# [8] = rat, in vivo, po, 75 mg/kg
# Procedure: Pancreas and liver concentrations ranged from 23,500 ng equiv./g to 28,100 ng equiv./g. Uveal tract and brain concentrations were lowest relative to the other tissues and were approximately 1000 ng equiv./g. Skin, thymus, prostate, and pituitary tissue concentrations were <3000 ng equiv./g. Remaining tissues had concentrations between 3600 ng-equiv./g and 10,700 ng equiv./g. […] As calculated using AUClast, the tissue:plasma ratios were highest for the small intestine (wall, 15.4) followed by the liver and adrenal gland at 6.96 and 6.64, respectively. High liver and small intestine concentrations are consistent with oral administration and biliary (fecal) excretion.
# Huh-7 cells [9] = test: Global methylation, LINE-1 assay (pyrosequencing); format: cell-based, human; conditions: HG media, 25HC3S for 4 hours
# Procedure: Each sample, 2 was sent to […], Inc. (Hopkinton, MA) for analysis of global methylation bisulfite sequencing. The same samples, 6 μg, were sent to Novogene Co., Ltd (Tianjin, China) for analysis of whole genome bisulfite sequencing (WGBS). Total RNA was isolated using the Promega SV total RNA isolation system (Madison, WI) with DNase treatment. […] Real-time RT-PCR was performed using SYBR Green as the indicator on ABI 7500 Fast Real-Time PCR System (Applied Biosystems, Foster City, CA). Amplifications of β-actin or GAPDH were used as internal controls. Relative messenger RNA (mRNA) expression was quantified with the comparative cycle threshold (Ct) method using the primer set shown in Table 1.1 and was expressed as 2^-ΔΔct. […] PCR reaction and product purification were performed as per the manufacturer's protocol (GE Healthcare Life Sciences). The PCR products, 10 μl, were sequenced by Pyrosequencing on the PSQ96 HS System following the manufacturer's instructions (Pyrosequencing, Qiagen). The methylation status of each CpG site was determined individually as an artificial C/T SNP using QCpG software (Pyrosequencing, Qiagen). The methylation level at each CpG site was calculated as the percentage of the methylated alleles divided by the sum of all methylated and unmethylated alleles. The mean methylation level was calculated using methylation levels of all measured CpG sites within the targeted region of each gene. Each experiment included non-CpG cytosines as internal controls to detect incomplete bisulfite conversion of the input DNA. In addition, a series of unmethylated and methylated DNA were included as controls in each PCR assay. Furthermore, PCR bias testing was performed by mixing unmethylated control DNA with in vitro methylated DNA at different ratios (0%, 5%, 10%, 25%, 50%, 75%, and 100%), followed by bisulfite modification, PCR, and Pyro-sequencing analysis.
structure (smiles),measurement,setting,value
"C[C@H](CCCC(C)(C)O)[C@H]1CC[C@H]2[C@@H]3CC=C4C[C@@H](OS(=O)(=O)O)CC[C@]4(C)[C@H]3CC[C@]12C [25HC3S, 25-hydroxycholesterol-3-sulfate]",decrease of FAS gene expression,Huh-7 cells [1],~90%
same,decrease of HMGR gene expression,Huh-7 cells [1],~90%
same,increase of CREB5 expression,Huh-7 cells [1],up to 20 fold
same,increase of DUSP8 expression,Huh-7 cells [1],5 fold
same,increase of PGC1A expression,Huh-7 cells [1],12 fold
same,plasma:whole blood AUClast ratio,[2],0.79
same,tissue concentrations by 168 hours post-dose,[2],"below quantitation limit in all tissues except adrenal gland, harderian gland, liver, and small intestine"
same,tissue distribution of parent and/or metabolites,[2]; Group 3,broadly distributed and detected by quantitative whole body autoradiography in all tissues except the eye (lens)
same,"tissue:plasma ratio, liver",[2]; calculated using AUClast,11.4
same,"tissue:plasma ratio, small intestine (wall)",[2]; calculated using AUClast,7.44
same,AUClast in liver,[2]; derived radioactivity,"≤ 364,000 h·ng/g"
same,"dose recovered in urine, feces, and cage rinse",[3],approximately 94.5 % of the dose
same,mean plasma C0,[4],"25,900 ng-equiv./g"
same,binding to pigmented or non-pigmented skin or the uveal tract,[5],no difference
same,plasma or whole blood concentrations versus Sprague Dawley rats,[5]; first 168 hours post-dose,no substantial difference
same,plasma Cmax,[6],3800 ng equiv./g
same,amount in feces,[7]; pools 0 to 48 hours post-dose,2 % of dose
same,share of the exposure (AUC) to 25HC3S related radioactivity in plasma,[7]; up to 1 hour post-dose,approximately 54%
same,"tissue:plasma ratio, adrenal gland","[8]; male, Sprague Dawley",6.64
same,"tissue:plasma ratio, liver","[8]; male, Sprague Dawley",6.96
same,"tissue:plasma ratio, small intestine (wall)","[8]; male, Sprague Dawley",15.4
same,Cmax in small intestine (wall),[8],"424,000 ng equiv./g"
same,Cmax in stomach (wall),[8],"204,000 ng equiv./g"
same,tissue concentrations by 168 hours post-dose,[8],near or below the quantitation limit in all tissues except adrenal gland and liver
same,tissue distribution of parent and/or metabolites,[8],broadly distributed and detected by quantitative whole body autoradiography in all tissues except the eye (lens)
same,whole blood AUClast,[8],"127,000 h·ng equiv./g"
same,Reduction of methylation (demethylation) at LINE-1 Pos1,Huh-7 cells [9],−5%
same,Reduction of methylation (demethylation) at LINE-1 Pos3,Huh-7 cells [9],−10%
same,Reduction of methylation (demethylation) at LINE-1 Pos 4,Huh-7 cells [9],−5.6%

# From patent publication US20230372361A1, “USE OF OXYGENATED CHOLESTEROL SULFATES FOR TREATING INFLAMMATORY CONDITIONS” (Durect Corporation, priority 2020, published 2023)
